Measurements taken from patent US20060069132A1, “Azolecarboxamide herbicides” (priority 2004, published 2006).

What was measured:
giant foxtail = assay: Test C pre-/postemergence herbicide test; type: in vivo, Setaria faberi; settings: for Foxtail, Giant plant response rating: 500 g ai/ha
Procedure, shortened: (§1)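 Seeds were planted and sprayed preemergence with test chemicals in a non-phytotoxic solvent mixture containing surfactant; postemergence treatments went onto plants 2 to 18 cm tall (1- to 4-leaf stage). After 12 to 14 days in a greenhouse, injury was rated visually against untreated controls on a 0–100 scale.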

soybean = assay: Test C pre-/postemergence herbicide test; type: in vivo, Glycine max; settings: for Soybean plant response rating: 500 g ai/ha
Procedure, shortened: as §1

eastern black nightshade = assay: Test C pre-/postemergence herbicide test; type: in vivo, Solanum ptycanthum; settings: for Plant response rating (0 = no effect, 100 = complete control), Nightshade: 62 g ai/ha; for Plant response rating (0 = no effect, 100 = complete control), Nightshade / Plant response rating, Nightshade: preemergence; for Plant response rating, Nightshade: visual, 12 to 14 days; for Nightshade plant response rating: Preemergence, 500 g ai/ha, scale 0 to 100, 0 no effect, 100 complete control
Procedure, shortened: as §1

ducksalad = assay: Test C flooded paddy test; type: in vivo, Heteranthera limosa; settings: for Plant response rating, Ducksalad: visual rating after 12 to 14 days
common ragweed = assay: Test C pre-/postemergence herbicide test; type: in vivo, Ambrosia elatior; set-up: key to Plant response rating, Ragweed: 0 = no effect, 100 = complete control; settings: for Ragweed plant response rating: 500 g ai/ha
Procedure, shortened: as §1

Surinam grass = assay: Test C pre-/postemergence herbicide test; type: in vivo, Urochloa decumbens; settings: for Surinam Grass plant response rating: 500 g ai/ha
Procedure, shortened: as §1

johnsongrass = assay: Test C pre-/postemergence herbicide test; type: in vivo, Sorghum halepense; settings: for Johnsongrass plant response rating: 500 g ai/ha
Procedure, shortened: as §1

lambsquarters = assay: Test C pre-/postemergence herbicide test; type: in vivo, Chenopodium album; settings: for Lambsquarters plant response rating: 500 g ai/ha
Procedure, shortened: as §1

corn = assay: Test C pre-/postemergence herbicide test; type: in vivo, Zea mays; settings: for Corn plant response rating: 500 g ai/ha
Procedure, shortened: as §1

yellow nutsedge = assay: Test C pre-/postemergence herbicide test; type: in vivo, Cyperus esculentus; settings: for Nutsedge, Yellow plant response rating: 500 g ai/ha
Procedure, shortened: as §1

morningglory = assay: Test C pre-/postemergence herbicide test; type: in vivo, Ipomoea coccinea; set-up: key to Plant response rating, Morningglory: 0 = no effect, 100 = complete control; settings: for Morningglory plant response rating: 500 g ai/ha
Procedure, shortened: as §1

[1] = tested on: smallflower umbrella sedge; assay: Test C flooded paddy test; type: in vivo, Cyperus difformis; settings: for Plant response rating, Sedge, Umbrella: visual rating after 12 to 14 days
barnyardgrass = assay: Test C flooded paddy test; type: in vivo, Echinochloa crus-galli; settings: for Plant response rating, Barnyardgrass: visual rating after 12 to 14 days
Procedure, shortened: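 Postemergence sprays were applied to plants 2 to 18 cm tall (1- to 4-leaf stage); in the flooded paddy test, barnyardgrass was grown to the 2-leaf stage. After 12 to 14 days in a greenhouse, injury was visually rated against untreated controls on a 0–100 scale (100 = complete control).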

[2] = 125 g ai/ha, scale 0 (no effect) to 100 (complete control), visual, 12 to 14 days, preemergence
[3] = 250 g ai/ha, scale 0 to 100 (0 no effect, 100 complete control), visual, 12 to 14 days, preemergence
[4] = Preemergence, scale 0 to 100, 0 no effect, 100 complete control
[5] = 250 g ai/ha, scale 0 to 100 (0 no effect, 100 complete control)
[6] = 62 g ai/ha, scale 0 to 100 (0 no effect, 100 complete control)
[7] = 125 g ai/ha, scale of 0 to 100, 0 is no effect, 100 is complete control
[8] = 250 g ai/ha, scale of 0 to 100, 0 is no effect, 100 is complete control
[9] = 500 g ai/ha, scale 0 to 100 (0 no effect, 100 complete control)
[10] = 125 g ai/ha, scale 0-100, preemergence
[11] = Postemergence, 125 g ai/ha, scale 0 to 100, 0 no effect, 100 complete control
[12] = Postemergence, 250 g ai/ha, scale 0 to 100, 0 no effect, 100 complete control
[13] = postemergence, 62 g ai/ha, scale 0 to 100
[14] = postemergence, 125 g ai/ha, scale 0 to 100

C=CCn1nc(C(C)(C)C)cc1C(=O)Nc1cccc(C(=O)NCC)c1 [Compound 56]
Plant response rating (0 = no effect, 100 = complete control), Foxtail, Giant (giant foxtail; 62 g ai/ha, preemergence): 45
Plant response rating, Foxtail, Giant (giant foxtail; [2]): 85
Plant response rating, Foxtail, Giant (giant foxtail; [3]): 100
Foxtail, Giant plant response rating (giant foxtail; [4]): 100
Plant response rating (0 = no effect, 100 = complete control), Soybean (soybean; 62 g ai/ha, preemergence): 0
Plant response rating, Soybean (soybean; [2]): 0
Plant response rating, Soybean (soybean; [3]): 10
Soybean plant response rating (soybean; [4]): 15
Plant response rating (0 = no effect, 100 = complete control), Nightshade (eastern black nightshade): 90
Plant response rating, Nightshade (eastern black nightshade; 125 g ai/ha, scale 0 (no effect) to 100 (complete control)): 95
Plant response rating, Nightshade (eastern black nightshade; [5]): 95
Nightshade plant response rating (eastern black nightshade): 95
Ducksalad plant response rating (ducksalad; [6]): 15
Ducksalad plant response rating (ducksalad; [7]): 55
Ducksalad plant response rating (ducksalad; [8]): 70
Plant response rating, Ducksalad (ducksalad; [9]): 75
Plant response rating (0 = no effect, 100 = complete control), Ragweed (common ragweed; 62 g ai/ha, preemergence): 60
Plant response rating, Ragweed (common ragweed; [2]): 95
Plant response rating, Ragweed (common ragweed; [3]): 95
Ragweed plant response rating (common ragweed; [4]): 95
Plant response rating (0 = no effect, 100 = complete control), Surinam Grass (Surinam grass; 62 g ai/ha, preemergence): 10
Plant response rating, Surinam Grass (Surinam grass; [2]): 15
Plant response rating, Surinam Grass (Surinam grass; [3]): 60
Surinam Grass plant response rating (Surinam grass; [4]): 75
Plant response rating (0 = no effect, 100 = complete control), Johnsongrass (johnsongrass; 62 g ai/ha, preemergence): 55
Plant response rating, Johnsongrass (johnsongrass; [2]): 70
Plant response rating, Johnsongrass (johnsongrass; [3]): 85
Johnsongrass plant response rating (johnsongrass; [4]): 90
Plant response rating (0 = no effect, 100 = complete control), Lambsquarters (lambsquarters; 62 g ai/ha, preemergence): 85
Plant response rating, Lambsquarters (lambsquarters; [2]): 100
Plant response rating, Lambsquarters (lambsquarters; [3]): 100
Lambsquarters plant response rating (lambsquarters; [4]): 100
Plant response rating (0 = no effect, 100 = complete control), Corn (corn; 62 g ai/ha, preemergence): 0
Plant response rating, Corn (corn; [2]): 0
Plant response rating, Corn (corn; [3]): 0
Corn plant response rating (corn; [4]): 0
Plant response rating (0 = no effect, 100 = complete control), Nutsedge, Yellow (yellow nutsedge; 62 g ai/ha, preemergence): 0
Plant response rating, Nutsedge, Yellow (yellow nutsedge; [2]): 0
Plant response rating, Nutsedge, Yellow (yellow nutsedge; [3]): 0
Nutsedge, Yellow plant response rating (yellow nutsedge; [4]): 20
Plant response rating (0 = no effect, 100 = complete control), Morningglory (morningglory; 62 g ai/ha, preemergence): 0
Plant response rating, Morningglory (morningglory; [2]): 0
Plant response rating, Morningglory (morningglory; [3]): 55
Morningglory plant response rating (morningglory; [4]): 55
Sedge, Umbrella plant response rating [1, 6]: 45
Sedge, Umbrella plant response rating [1, 7]: 85
Sedge, Umbrella plant response rating [1, 8]: 90
Plant response rating, Sedge, Umbrella [1, 9]: 90
Barnyardgrass plant response rating (barnyardgrass; [6]): 0
Barnyardgrass plant response rating (barnyardgrass; [7]): 20
Barnyardgrass plant response rating (barnyardgrass; [8]): 65
Plant response rating, Barnyardgrass (barnyardgrass; [9]): 80

C=Cn1nc(C(C)(C)C)cc1C(=O)Nc1cccc(C(=O)N(CC)CC)c1 [Compound 34]
Plant response rating (0 = no effect, 100 = complete control), Foxtail, Giant (giant foxtail; 62 g ai/ha, preemergence): 10
Plant response rating, Foxtail, Giant (giant foxtail; [10]): 70
Plant response rating, Foxtail, Giant (giant foxtail; [3]): 90
Foxtail, Giant plant response rating (giant foxtail; Postemergence, scale 0 to 100): 40
Plant response rating, Foxtail, Giant (giant foxtail; [11]): 40
Plant response rating, Foxtail, Giant (giant foxtail; [12]): 40
Foxtail, Giant plant response rating (giant foxtail; [4]): 100
Plant response rating, Foxtail, Giant (giant foxtail; [13]): 20
Plant response rating (0 = no effect, 100 = complete control), Soybean (soybean; 62 g ai/ha, preemergence): 0
Plant response rating, Soybean (soybean; [3]): 0
Soybean plant response rating (soybean; Postemergence, scale 0 to 100): 80
Plant response rating, Soybean (soybean; [12]): 80
Soybean plant response rating (soybean; [4]): 0
Plant response rating, Soybean (soybean; [14]): 80
Plant response rating, Soybean (soybean; [13]): 70
Plant response rating (0 = no effect, 100 = complete control), Nightshade (eastern black nightshade): 10
Plant response rating, Nightshade (eastern black nightshade; [5]): 90
Nightshade plant response rating (eastern black nightshade): 100
Ducksalad plant response rating (ducksalad; [6]): 15
Ducksalad plant response rating (ducksalad; [7]): 25
Plant response rating, Ducksalad (ducksalad; [5]): 25
Plant response rating, Ducksalad (ducksalad; [9]): 75
Plant response rating (0 = no effect, 100 = complete control), Ragweed (common ragweed; 62 g ai/ha, preemergence): 0
Plant response rating, Ragweed (common ragweed; [3]): 0
Ragweed plant response rating (common ragweed; Postemergence, scale 0 to 100): 40
Plant response rating, Ragweed (common ragweed; [12]): 40
Ragweed plant response rating (common ragweed; [4]): 40
Plant response rating, Ragweed (common ragweed; [14]): 30
Plant response rating, Ragweed (common ragweed; [13]): 20
Plant response rating (0 = no effect, 100 = complete control), Surinam Grass (Surinam grass; 62 g ai/ha, preemergence): 10
Plant response rating, Surinam Grass (Surinam grass; [3]): 60
Surinam Grass plant response rating (Surinam grass; Postemergence, scale 0 to 100): 70
Plant response rating, Surinam Grass (Surinam grass; [12]): 50
Surinam Grass plant response rating (Surinam grass; [4]): 70
Plant response rating, Surinam Grass (Surinam grass; [14]): 30
Plant response rating, Surinam Grass (Surinam grass; [13]): 20
Plant response rating (0 = no effect, 100 = complete control), Johnsongrass (johnsongrass; 62 g ai/ha, preemergence): 50
Plant response rating, Johnsongrass (johnsongrass; [10]): 80
Plant response rating, Johnsongrass (johnsongrass; [3]): 100
Johnsongrass plant response rating (johnsongrass; Postemergence, scale 0 to 100): 80
Plant response rating, Johnsongrass (johnsongrass; [11]): 70
Plant response rating, Johnsongrass (johnsongrass; [12]): 70
Johnsongrass plant response rating (johnsongrass; [4]): 100
Plant response rating, Johnsongrass (johnsongrass; [13]): 70
Plant response rating (0 = no effect, 100 = complete control), Lambsquarters (lambsquarters; 62 g ai/ha, preemergence): 90
Plant response rating, Lambsquarters (lambsquarters; [10]): 100
Plant response rating, Lambsquarters (lambsquarters; [3]): 100
Lambsquarters plant response rating (lambsquarters; Postemergence, scale 0 to 100): 100
Plant response rating, Lambsquarters (lambsquarters; [12]): 100
Lambsquarters plant response rating (lambsquarters; [4]): 100
Plant response rating, Lambsquarters (lambsquarters; [14]): 80
Plant response rating, Lambsquarters (lambsquarters; [13]): 40
Plant response rating (0 = no effect, 100 = complete control), Corn (corn; 62 g ai/ha, preemergence): 0
Plant response rating, Corn (corn; [10]): 0
Plant response rating, Corn (corn; [3]): 0
Corn plant response rating (corn; Postemergence, scale 0 to 100): 70
Plant response rating, Corn (corn; [11]): 30
Plant response rating, Corn (corn; [12]): 50
Corn plant response rating (corn; [4]): 0
Plant response rating, Corn (corn; [13]): 20
Plant response rating (0 = no effect, 100 = complete control), Nutsedge, Yellow (yellow nutsedge; 62 g ai/ha, preemergence): 0
Plant response rating, Nutsedge, Yellow (yellow nutsedge; [3]): 0
Nutsedge, Yellow plant response rating (yellow nutsedge; Postemergence, scale 0 to 100): 20
Plant response rating, Nutsedge, Yellow (yellow nutsedge; [12]): 0
Nutsedge, Yellow plant response rating (yellow nutsedge; [4]): 0
Plant response rating, Nutsedge, Yellow (yellow nutsedge; [14]): 0
Plant response rating, Nutsedge, Yellow (yellow nutsedge; [13]): 0
Plant response rating (0 = no effect, 100 = complete control), Morningglory (morningglory; 62 g ai/ha, preemergence): 0
Plant response rating, Morningglory (morningglory; [3]): 0
Morningglory plant response rating (morningglory; Postemergence, scale 0 to 100): 40
Plant response rating, Morningglory (morningglory; [12]): 10
Morningglory plant response rating (morningglory; [4]): 100
Plant response rating, Morningglory (morningglory; [14]): 10
Plant response rating, Morningglory (morningglory; [13]): 10
Sedge, Umbrella plant response rating [1, 6]: 50
Sedge, Umbrella plant response rating [1, 7]: 80
Plant response rating, Sedge, Umbrella [1, 5]: 80
Plant response rating, Sedge, Umbrella [1, 9]: 90
Barnyardgrass plant response rating (barnyardgrass; [6]): 0
Barnyardgrass plant response rating (barnyardgrass; [7]): 35
Plant response rating, Barnyardgrass (barnyardgrass; [5]): 45
Plant response rating, Barnyardgrass (barnyardgrass; [9]): 65
